Test results: patent US12331044B2, “Inhibitors of histone deacetylase useful for the treatment or prevention of HIV infection” (Merck Sharp & Dohme LLC, priority 2018, dated 2025)
Where two headings read alike, the source gives them in different places.

Legend:
[1] = biological target: human HDAC2 (Homo sapiens (Human), UniProt Q92769); experiment: HDAC2 inhibition assay (modified FLUOR DE LYS, 384-well); format: biochemical; conditions: […] nM enzyme, 40 μM substrate BML-KI104, 3 h pre-incubation; read-out: HDAC2 IC50
Chain of human HDAC2 (Q92769 whole entry): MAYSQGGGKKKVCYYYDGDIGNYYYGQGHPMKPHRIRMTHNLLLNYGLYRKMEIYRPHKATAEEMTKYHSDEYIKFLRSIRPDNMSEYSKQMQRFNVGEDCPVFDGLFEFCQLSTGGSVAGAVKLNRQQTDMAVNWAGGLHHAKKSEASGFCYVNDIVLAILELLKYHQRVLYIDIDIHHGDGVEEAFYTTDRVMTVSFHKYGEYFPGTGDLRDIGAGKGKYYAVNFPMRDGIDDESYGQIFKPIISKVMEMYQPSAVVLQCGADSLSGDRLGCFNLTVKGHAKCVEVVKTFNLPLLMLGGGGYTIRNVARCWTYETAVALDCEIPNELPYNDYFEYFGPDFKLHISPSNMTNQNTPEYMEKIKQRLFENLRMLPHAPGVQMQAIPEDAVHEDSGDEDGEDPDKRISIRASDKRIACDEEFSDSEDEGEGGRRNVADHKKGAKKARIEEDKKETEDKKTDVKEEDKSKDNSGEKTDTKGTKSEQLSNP

[2] = biological target: human HDAC3/SMRT heterodimer (Homo sapiens (Human), UniProt O15379); experiment: biochemical
Chain of human HDAC3/SMRT heterodimer (O15379 whole entry): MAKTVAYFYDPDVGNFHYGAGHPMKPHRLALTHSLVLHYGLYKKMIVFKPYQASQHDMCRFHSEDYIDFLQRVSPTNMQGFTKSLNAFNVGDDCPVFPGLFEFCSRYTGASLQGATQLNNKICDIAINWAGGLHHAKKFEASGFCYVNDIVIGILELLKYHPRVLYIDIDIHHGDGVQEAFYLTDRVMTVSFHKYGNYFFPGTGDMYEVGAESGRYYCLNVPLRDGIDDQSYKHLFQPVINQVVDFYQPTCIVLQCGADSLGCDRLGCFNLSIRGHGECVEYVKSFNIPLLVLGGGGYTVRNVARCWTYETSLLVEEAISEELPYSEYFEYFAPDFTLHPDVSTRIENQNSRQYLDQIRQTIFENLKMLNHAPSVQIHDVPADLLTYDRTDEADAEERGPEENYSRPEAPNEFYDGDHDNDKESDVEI
Chain of human HDAC3/SMRT heterodimer (Q9Y618 1-899 partner): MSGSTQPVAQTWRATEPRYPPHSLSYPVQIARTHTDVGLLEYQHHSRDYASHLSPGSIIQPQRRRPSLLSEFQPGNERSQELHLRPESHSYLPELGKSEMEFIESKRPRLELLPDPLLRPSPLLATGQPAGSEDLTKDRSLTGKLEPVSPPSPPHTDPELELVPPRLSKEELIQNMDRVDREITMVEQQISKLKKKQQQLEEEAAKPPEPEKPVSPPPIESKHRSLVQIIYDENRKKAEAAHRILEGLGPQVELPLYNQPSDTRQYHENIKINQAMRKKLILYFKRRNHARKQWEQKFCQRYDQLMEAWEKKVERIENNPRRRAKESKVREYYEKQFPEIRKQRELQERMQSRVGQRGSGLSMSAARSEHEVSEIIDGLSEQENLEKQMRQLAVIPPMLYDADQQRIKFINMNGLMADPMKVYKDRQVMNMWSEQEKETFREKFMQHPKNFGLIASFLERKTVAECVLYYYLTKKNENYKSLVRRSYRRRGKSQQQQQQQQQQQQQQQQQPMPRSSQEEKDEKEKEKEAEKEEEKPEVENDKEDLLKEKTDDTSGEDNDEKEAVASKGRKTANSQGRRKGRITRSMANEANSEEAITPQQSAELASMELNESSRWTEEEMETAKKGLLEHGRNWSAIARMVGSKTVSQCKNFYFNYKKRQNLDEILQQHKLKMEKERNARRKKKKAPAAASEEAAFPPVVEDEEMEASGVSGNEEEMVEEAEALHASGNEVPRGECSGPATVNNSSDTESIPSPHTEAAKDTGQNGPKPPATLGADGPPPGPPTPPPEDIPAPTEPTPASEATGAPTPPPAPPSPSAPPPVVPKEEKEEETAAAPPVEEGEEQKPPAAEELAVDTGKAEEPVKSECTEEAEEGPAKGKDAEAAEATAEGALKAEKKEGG

[3] = biological target: human HDAC1 (Homo sapiens (Human), UniProt Q13547); experiment: biochemical
Chain of human HDAC1 (Q13547 whole entry): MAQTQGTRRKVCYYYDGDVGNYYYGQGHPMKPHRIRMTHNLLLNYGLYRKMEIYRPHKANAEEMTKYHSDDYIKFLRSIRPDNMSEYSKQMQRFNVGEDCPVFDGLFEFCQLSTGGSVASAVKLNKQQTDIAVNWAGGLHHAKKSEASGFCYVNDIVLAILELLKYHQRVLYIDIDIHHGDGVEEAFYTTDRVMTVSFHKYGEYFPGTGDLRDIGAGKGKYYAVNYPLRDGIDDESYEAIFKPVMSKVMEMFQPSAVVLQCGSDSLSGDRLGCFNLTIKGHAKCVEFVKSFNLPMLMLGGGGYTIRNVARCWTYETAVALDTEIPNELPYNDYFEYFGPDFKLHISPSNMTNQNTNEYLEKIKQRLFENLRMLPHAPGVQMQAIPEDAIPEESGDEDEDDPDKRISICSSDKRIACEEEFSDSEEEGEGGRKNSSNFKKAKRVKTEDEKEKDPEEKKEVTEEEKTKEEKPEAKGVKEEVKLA

[4] = biological target: human HDAC8 (Homo sapiens (Human), UniProt Q9BY41); experiment: HDAC8 inhibition assay (modified FLUOR DE LYS, 384-well); format: biochemical; conditions: […] nM enzyme, 200 μM substrate BML-KI178, 3 h pre-incubation; read-out: HDAC8 IC50
Chain of human HDAC8 (Q9BY41 whole entry): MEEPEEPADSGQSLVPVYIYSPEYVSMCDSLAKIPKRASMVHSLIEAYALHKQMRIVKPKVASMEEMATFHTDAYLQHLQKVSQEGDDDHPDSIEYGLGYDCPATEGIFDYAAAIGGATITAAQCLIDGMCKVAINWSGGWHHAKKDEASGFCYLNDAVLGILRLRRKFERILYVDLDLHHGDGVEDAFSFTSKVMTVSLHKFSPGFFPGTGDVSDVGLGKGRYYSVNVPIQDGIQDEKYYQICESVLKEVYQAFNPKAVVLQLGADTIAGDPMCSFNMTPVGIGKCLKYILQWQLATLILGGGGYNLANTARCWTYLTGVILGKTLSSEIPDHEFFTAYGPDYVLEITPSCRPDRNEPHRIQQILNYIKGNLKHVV

[5] = biological target: HDAC6 (Homo sapiens (Human), UniProt Q9UBN7); experiment: biochemical
Chain of HDAC6 (Q9UBN7 whole entry): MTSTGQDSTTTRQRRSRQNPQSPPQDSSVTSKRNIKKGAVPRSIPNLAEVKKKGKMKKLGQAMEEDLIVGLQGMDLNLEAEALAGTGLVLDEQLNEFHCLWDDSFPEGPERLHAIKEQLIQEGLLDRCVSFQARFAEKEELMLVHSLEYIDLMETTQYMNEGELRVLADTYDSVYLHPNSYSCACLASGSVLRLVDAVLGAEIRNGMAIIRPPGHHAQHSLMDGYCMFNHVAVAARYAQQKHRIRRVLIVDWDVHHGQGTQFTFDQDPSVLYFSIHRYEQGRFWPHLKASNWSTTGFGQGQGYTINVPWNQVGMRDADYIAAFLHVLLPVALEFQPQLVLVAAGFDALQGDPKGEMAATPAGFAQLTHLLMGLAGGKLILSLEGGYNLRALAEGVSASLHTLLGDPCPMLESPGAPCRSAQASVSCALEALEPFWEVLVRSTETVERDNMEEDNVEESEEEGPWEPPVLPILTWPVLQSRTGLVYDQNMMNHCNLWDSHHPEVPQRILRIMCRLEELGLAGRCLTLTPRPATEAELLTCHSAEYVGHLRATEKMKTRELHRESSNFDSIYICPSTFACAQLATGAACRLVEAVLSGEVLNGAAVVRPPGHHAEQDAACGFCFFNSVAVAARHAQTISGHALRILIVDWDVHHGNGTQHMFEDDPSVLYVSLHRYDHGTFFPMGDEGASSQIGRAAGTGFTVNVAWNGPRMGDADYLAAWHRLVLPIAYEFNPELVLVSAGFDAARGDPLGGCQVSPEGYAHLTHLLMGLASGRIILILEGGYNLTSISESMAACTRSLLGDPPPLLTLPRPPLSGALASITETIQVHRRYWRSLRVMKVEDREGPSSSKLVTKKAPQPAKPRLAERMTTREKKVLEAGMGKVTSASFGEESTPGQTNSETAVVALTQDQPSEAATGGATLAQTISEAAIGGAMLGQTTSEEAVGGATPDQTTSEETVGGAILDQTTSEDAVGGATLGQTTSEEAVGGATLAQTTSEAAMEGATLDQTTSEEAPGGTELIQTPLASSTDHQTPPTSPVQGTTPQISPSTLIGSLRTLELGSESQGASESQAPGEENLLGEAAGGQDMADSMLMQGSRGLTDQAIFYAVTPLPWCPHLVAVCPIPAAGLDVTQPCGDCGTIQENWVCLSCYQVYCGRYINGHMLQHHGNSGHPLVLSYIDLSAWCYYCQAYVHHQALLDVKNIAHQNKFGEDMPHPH

[6] = system: KARN cells (Jurkat 2C4); experiment: cells; conditions: Homo sapiens
[7] = read-out: Karn EC50 nM 0.1% NHS
[8] = read-out: Karn EC50 nM 0.1% NHS, 0.1% normal human serum, luciferase induction, 2 μM SAHA = 100%
[9] = read-out: Karn EC50 nM 5% NHS, 5% normal human serum, luciferase induction, 2 μM SAHA = 100%

| Structure (SMILES) | IC50 [1] | IC50 [2] | IC50 [3] | IC50 [4] | IC50 [5] | EC50 [6, 7] | EC50 ([6]; read-out: Karn EC50 nM 5% NHS) | EC50 [6, 8] | EC50 [6, 9] |
| --- | --- | --- | --- | --- | --- | --- | --- | --- | --- |
| CC(=O)N[C@@H](CCCCCC(=O)c1ncco1)c1ncc(-c2ccc3nc(C)ccc3c2)[nH]1 [Example 87, (S)-N-(1-(5-(2-methylquinolin-6-yl)-1H-imidazol-2-yl)-7-(oxazol-2-yl)-7-oxoheptyl)acetamide] | 5.7 nM | 1.8 nM | 0.69 nM | 130 nM | 8600 nM | 43 nM | 60 nM | – | – |
| O=C(CCCCC[C@H](NC(=O)c1cncs1)c1[nH]c(-c2ccc(F)cc2)nc1Cl)c1ncco1 [Example 88, (S)-N-(1-(4-chloro-2-(4-fluorophenyl)-1H-imidazol-5-yl)-7-(oxazol-2-yl)-7-oxoheptyl)thiazole-5-carboxamide] | 1.4 nM | 0.37 nM | 0.22 nM | 61 nM | ≥ 45000 nM | – | – | 25 nM | 380 nM |
| COc1cc2nc(C)ccc2cc1-c1cnc([C@H](CCCCCC(=O)c2ncco2)NC(=O)CN(C)C)[nH]1 [Example 89, (S)-2-(dimethylamino)-N-(1-(5-(7-methoxy-2-methylquinolin-6-yl)-1H-imidazol-2-yl)-7-(oxazol-2-yl)-7-oxoheptyl)acetamide] | 3.4 nM | 1.5 nM | 0.8 nM | 69 nM | 1700 nM | 13 nM | 32 nM | – | – |
| CCn1ccc2cc(-c3cnc([C@H](CCCCCC(=O)c4ccon4)NC(=O)CN(C)C)[nH]3)c(OC)cc2c1=O [Example 94, (S)-2-(dimethylamino)-N-(1-(5-(2-ethyl-7-methoxy-1-oxo-1,2-dihydroisoquinolin-6-yl)-1H-imidazol-2-yl)-7-(isoxazol-3-yl)-7-oxoheptyl)acetamide] | 1 nM | 0.24 nM | 0.26 nM | 5.2 nM | 20000 nM | – | – | 3.8 nM | 8.8 nM |
| CN(C)CC(=O)N[C@@H](CCCCCC(=O)c1ncco1)c1ncc(-c2ccc3nccnc3c2)[nH]1 [Example 95, (S)-2-(dimethylamino)-N-(7-(oxazol-2-yl)-7-oxo-1-(5-(quinoxalin-6-yl)-1H-imidazol-2-yl)heptyl)acetamide] | 8.6 nM | 2.2 nM | 1.3 nM | 68 nM | 700 nM | – | – | 63 nM | 84 nM |
| CCN1CCC2(CC1)C[C@@H]2C(=O)N[C@@H](CCCCCC(=O)c1ncco1)c1[nH]c(-c2ccc(F)cc2)nc1Cl [Example 97, (S)-N-((S)-1-(4-chloro-2-(4-fluorophenyl)-1H-imidazol-5-yl)-7-(oxazol-2-yl)-7-oxoheptyl)-6-ethyl-6-azaspiro[2.5]octane-1-carboxamide] | 0.38 nM | 0.066 nM | 0.049 nM | 210 nM | 19000 nM | – | – | 4.1 nM | 11 nM |
| COc1cc2nc(C)ccc2cc1-c1cnc([C@H](CCCCCC(=O)c2ncco2)NC(=O)C2CCN(C)CC2)[nH]1 [Example 98, (S)-N-(1-(5-(7-methoxy-2-methylquinolin-6-yl)-1H-imidazol-2-yl)-7-(oxazol-2-yl)-7-oxoheptyl)-1-methylpiperidine-4-carboxamide] | 3.6 nM | 0.64 nM | 0.34 nM | 25 nM | 1000 nM | 58 nM | 170 nM | – | – |
| COc1cc2nc(C)ccc2cc1-c1cnc([C@H](CCCCCC(=O)c2ncco2)NC(=O)C2CN(C)C2)[nH]1 [Example 99, (S)-N-(1-(5-(7-methoxy-2-methylquinolin-6-yl)-1H-imidazol-2-yl)-7-(oxazol-2-yl)-7-oxoheptyl)-1-methylazetidine-3-carboxamide] | 2.6 nM | 0.47 nM | 0.3 nM | 56 nM | 1300 nM | 77 nM | 73 nM | – | – |
| COc1cc2nc(C)ccc2cc1-c1cnc([C@H](CCCCCC(=O)c2ncco2)NC(=O)C2CN(C)C2)o1 [Example 100, (S)-N-(1-(5-(7-methoxy-2-methylquinolin-6-yl)oxazol-2-yl)-7-(oxazol-2-yl)-7-oxoheptyl)-1-methylazetidine-3-carboxamide] | 1.3 nM | 0.28 nM | 0.45 nM | 130 nM | 620 nM | 19 nM | 21 nM | – | – |
| CN1CC(C(=O)N[C@@H](CCCCCC(=O)c2ncco2)c2[nH]c(-c3ccc(F)cc3)nc2Cl)C1 [Example 101, (S)-N-(1-(4-chloro-2-(4-fluorophenyl)-1H-imidazol-5-yl)-7-(oxazol-2-yl)-7-oxoheptyl)-1-methylazetidine-3-carboxamide] | 1.5 nM | 1.5 nM | 1.5 nM | 340 nM | ≥ 45000 nM | – | – | 27 nM | 22 nM |
| CN1CC(C(=O)N[C@@H](CCCCCC(=O)c2ccon2)c2[nH]c(-c3ccccc3F)nc2Cl)C1 [Example 105, (S)-N-(1-(4-chloro-2-(2-fluorophenyl)-1H-imidazol-5-yl)-7-(isoxazol-3-yl)-7-oxoheptyl)-1-methylazetidine-3-carboxamide] | 0.37 nM | 0.046 nM | 0.12 nM | 29 nM | 8500 nM | – | – | 2.8 nM | 3.5 nM |
| COc1cc2nc(C)ccc2cc1-c1cnc([C@H](CCCCCC(=O)c2ccon2)NC(=O)C2CN(C)C2)o1 [Example 108, (S)-N-(7-(isoxazol-3-yl)-1-(5-(7-methoxy-2-methylquinolin-6-yl)oxazol-2-yl)-7-oxoheptyl)-1-methylazetidine-3-carboxamide] | 0.35 nM | 0.19 nM | 0.18 nM | 5.8 nM | > 900 nM | – | – | 6.4 nM | 6.1 nM |
| COc1cc2nc(C)ccc2cc1-c1cnc([C@H](CCCCCC(=O)c2ccon2)NC(=O)[C@H]2CC23CCN(C)CC3)[nH]1 [Example 110, (S)-N-((S)-7-(isoxazol-3-yl)-1-(5-(7-methoxy-2-methylquinolin-6-yl)-1H-imidazol-2-yl)-7-oxoheptyl)-6-methyl-6-azaspiro[2.5]octane-1-carboxamide] | 0.87 nM | 0.18 nM | 0.18 nM | 2.7 nM | 2500 nM | – | – | 11 nM | 11 nM |
| COc1ncccc1-c1cnc(C(CCCCCC(=O)c2ncco2)NC(=O)[C@H]2CC23CCN(C)CC3)o1 (stereo partly drawn) [Example 114, (1S)-N-(1-(5-(2-methoxypyridin-3-yl)oxazol-2-yl)-7-(oxazol-2-yl)-7-oxoheptyl)-6-methyl-6-azaspiro[2.5]octane-1-carboxamide] | 120 nM | 13 nM | 26 nM | > 900 nM | > 900 nM | – | – | 3400 nM | 4200 nM |
| Cc1ccc2cc(-c3cnc([C@H](CCCCCC(=O)c4ncco4)NC(=O)C4=NOC5(CCN(C)CC5)C4)o3)ccc2n1 [Example 116, (S)-8-methyl-N-(1-(5-(2-methylquinolin-6-yl)oxazol-2-yl)-7-(oxazol-2-yl)-7-oxoheptyl)-1-oxa-2,8-diazaspiro[4.5]dec-2-ene-3-carboxamide] | 9.7 nM | 1.5 nM | 4.8 nM | 250 nM | 4100 nM | – | – | 95 nM | 120 nM |
